The source made the active and inactive calls. No cut-off for these calls is given here.
Legend:
[1] = test system: B16; assay: Antineoplastic activity against mouse B16 cells allografted in BDF1 mouse at 0.5 mg/kg qd for 9 days relative to control; assay type: functional
[2] = test system: Colon 26; assay: Antineoplastic activity against mouse Colon 26 cells allografted in CDF1 mouse at 1.08 mg/kg qd for 9 days relative to control; assay type: functional
[3] = test system: P388; assay: Antineoplastic activity against mouse P388 cells allografted in CDF1 mouse at 0.06 mg/kg qd for 9 days relative to control; assay type: functional
[4] = test system: P388; assay: Antineoplastic activity against mouse P388 cells allografted in CDF1 mouse assessed as survival at 0.5 mg/kg qd for 9 days; assay type: functional, organism-based; parameters: dose 0.5 mg/kg
[5] = test system: P388; assay: Antineoplastic activity against mouse P388 cells allografted in CDF1 mouse at 1 mg/kg qd for 9 days relative to control; assay type: functional
[6] = test system: P388; assay: Antineoplastic activity against mouse P388 cells allografted in CDF1 mouse at 0.25 mg/kg qd for 9 days relative to control; assay type: functional
[7] = test system: Colon 26; assay: Antineoplastic activity against mouse Colon 26 cells allografted in CDF1 mouse assessed as survival at 0.69 mg/kg qd for 9 days; assay type: functional, organism-based; parameters: dose 0.69 mg/kg
[8] = test system: L1210; assay: Antineoplastic activity against mouse L1210 cells allografted in CDF1 mouse assessed as survival at 18 mg/kg qd for 9 days; assay type: functional, organism-based; parameters: dose 18 mg/kg
[9] = test system: B16; assay: Antineoplastic activity against mouse B16 cells allografted in BDF1 mouse at 0.25 mg/kg qd for 9 days relative to control; assay type: functional
[10] = test system: L1210; assay: Antineoplastic activity against mouse L1210 cells allografted in CDF1 mouse assessed as survival at 10.8 mg/kg qd for 9 days; assay type: functional, organism-based; parameters: dose 10.8 mg/kg
[11] = test system: L1210; assay: Antineoplastic activity against mouse L1210 cells allografted in CDF1 mouse assessed as survival at 2 mg/kg qd for 9 days; assay type: functional, organism-based; parameters: dose 2 mg/kg
[12] = test system: L1210; assay: Antineoplastic activity against mouse L1210 cells allografted in CDF1 mouse at 2 mg/kg qd for 9 days relative to control; assay type: functional
[13] = test system: B16; assay: Antineoplastic activity against mouse B16 cells allografted in BDF1 mouse assessed as survival at 0.25 mg/kg qd for 9 days; assay type: functional, organism-based; parameters: dose 0.25 mg/kg
[14] = test system: P388; assay: Antineoplastic activity against mouse P388 cells allografted in CDF1 mouse at 2 mg/kg qd for 9 days relative to control; assay type: functional
[15] = test system: P388; assay: Antineoplastic activity against mouse P388 cells allografted in CDF1 mouse at 0.5 mg/kg qd for 9 days relative to control; assay type: functional
[16] = test system: L1210; assay: Antineoplastic activity against mouse L1210 cells allografted in CDF1 mouse at 4 mg/kg qd for 9 days relative to control; assay type: functional
[17] = test system: Colon 26; assay: Antineoplastic activity against mouse Colon 26 cells allografted in CDF1 mouse assessed as survival at 0.39 mg/kg qd for 9 days; assay type: functional, organism-based; parameters: dose 0.39 mg/kg
[18] = test system: B16; assay: Antineoplastic activity against mouse B16 cells allografted in BDF1 mouse assessed as survival at 0.5 mg/kg qd for 9 days; assay type: functional, organism-based; parameters: dose 0.5 mg/kg
[19] = test system: B16; assay: Antineoplastic activity against mouse B16 cells allografted in BDF1 mouse assessed as survival at 2 mg/kg qd for 9 days; assay type: functional, organism-based; parameters: dose 2 mg/kg
[20] = test system: L1210; assay: Antineoplastic activity against mouse L1210 cells allografted in CDF1 mouse assessed as survival at 1 mg/kg qd for 9 days; assay type: functional, organism-based; parameters: dose 1 mg/kg
[21] = test system: L1210; assay: Antineoplastic activity against mouse L1210 cells allografted in CDF1 mouse assessed as survival at 4 mg/kg qd for 9 days; assay type: functional, organism-based; parameters: dose 4 mg/kg
[22] = test system: B16; assay: Antineoplastic activity against mouse B16 cells allografted in BDF1 mouse assessed as survival at 1 mg/kg qd for 9 days; assay type: functional, organism-based; parameters: dose 1 mg/kg
[23] = test system: L1210; assay: Antineoplastic activity against mouse L1210 cells allografted in CDF1 mouse at 10.8 mg/kg qd for 9 days relative to control; assay type: functional
[24] = test system: P388; assay: Antineoplastic activity against mouse P388 cells allografted in CDF1 mouse assessed as survival at 1 mg/kg qd for 9 days; assay type: functional, organism-based; parameters: dose 1 mg/kg
[25] = test system: P388; assay: Antineoplastic activity against mouse P388 cells allografted in CDF1 mouse at 0.12 mg/kg qd for 9 days relative to control; assay type: functional
[26] = test system: P388; assay: Antineoplastic activity against mouse P388 cells allografted in CDF1 mouse assessed as survival at 0.06 mg/kg qd for 9 days; assay type: functional, organism-based; parameters: dose 0.06 mg/kg
[27] = test system: L1210; assay: Antineoplastic activity against mouse L1210 cells allografted in CDF1 mouse at 18 mg/kg qd for 9 days relative to control; assay type: functional
[28] = test system: Colon 26; assay: Antineoplastic activity against mouse Colon 26 cells allografted in CDF1 mouse at 0.69 mg/kg qd for 9 days relative to control; assay type: functional
[29] = test system: L1210; assay: Antineoplastic activity against mouse L1210 cells allografted in CDF1 mouse at 1 mg/kg qd for 9 days relative to control; assay type: functional
[30] = test system: B16; assay: Antineoplastic activity against mouse B16 cells allografted in BDF1 mouse at 1 mg/kg qd for 9 days relative to control; assay type: functional
[31] = test system: Colon 26; assay: Antineoplastic activity against mouse Colon 26 cells allografted in CDF1 mouse at 0.39 mg/kg qd for 9 days relative to control; assay type: functional
[32] = test system: P388; assay: Antineoplastic activity against mouse P388 cells allografted in CDF1 mouse assessed as survival at 0.12 mg/kg qd for 9 days; assay type: functional, organism-based; parameters: dose 0.12 mg/kg
[33] = test system: B16; assay: Antineoplastic activity against mouse B16 cells allografted in BDF1 mouse at 2 mg/kg qd for 9 days relative to control; assay type: functional
[34] = test system: P388; assay: Antineoplastic activity against mouse P388 cells allografted in CDF1 mouse assessed as survival at 0.25 mg/kg qd for 9 days; assay type: functional, organism-based; parameters: dose 0.25 mg/kg
[35] = test system: P388; assay: Antineoplastic activity against mouse P388 cells allografted in CDF1 mouse assessed as survival at 2 mg/kg qd for 9 days; assay type: functional, organism-based; parameters: dose 2 mg/kg
[36] = test system: Colon 26; assay: Antineoplastic activity against mouse Colon 26 cells allografted in CDF1 mouse assessed as survival at 1.08 mg/kg qd for 9 days; assay type: functional, organism-based; parameters: dose 1.08 mg/kg

`O=C1c2c(O)ccc(O)c2C(=O)c2c(NCCNCCO)ccc(NCCNCCO)c21` [MITOXANTRONE] was tested, and the T/C [1] was 299%, the T/C [2] was 353% and the T/C [3] was 192%. For the same compound, the Activity [4] was “Active”, the T/C [5] was 381% and the T/C [6] was 224%. The Activity [7] was “Active”, the Activity [8] was “Active” and the T/C [9] was 186%. For the same compound, the Activity [10] was “Active”, the Activity [11] was “Active” and the T/C [12] was 198%. For the same compound, the Activity [13] was “Active”, the T/C [14] was 230% and the T/C [15] was 305%. For the same compound, the T/C [16] was 256%, the Activity [17] was “Active” and the Activity [18] was “Active”. For the same compound, the Activity [19] was “Active”, the Activity [20] was “Active” and the Activity [21] was “Active”. For the same compound, the Activity [22] was “Active”, the T/C [23] was 261% and the Activity [24] was “Active”. The T/C [25] was 210%, the Activity [26] was “Active” and the T/C [27] was 308%. It also gave a T/C [28] of 305%, a T/C [29] of 163% and a T/C [30] of 342%. For the same compound, the T/C [31] was 259%, the Activity [32] was “Active” and the T/C [33] was 231%. The Activity [34] was “Active”, the Activity [35] was “Active” and the Activity [36] was “Active”.

Reference: ChEMBL document CHEMBL3244053, “Structural modification study of bis(substituted aminoalkylamino)anthraquinones. An evaluation of the relationship of the [2-[(2-hydroxyethyl)amino]ethyl]amino side chain with antineoplastic activity” (1979)
